Reference: patent US20240024255A1 (priority 2022, published 2024)
Marks after values point to notes of the source that are not given here.

Tests used:
[1] = system: carrageenan-induced paw edema; experiment: Carrageenan-induced acute inflammatory model (paw edema); assay type: in vivo, Wistar rats; details: Indomethacin 10 mg/kg.bw
Experimental: Wistar rats were randomly allotted into six groups (n=6) and kept for 7-day acclimatization. Group 1 was treated as control, group 2 received indomethacin 10 mg/kg.bw. […] All animal studies have been carried out by following the animal ethical guidelines and regulation of Institutional Animal Ethics Committee of Vidya Herbs Pvt. Ltd. Bangalore. India. with the protocol number VHPL/PCL/IAEC/08/19.
The carrageenan-induced paw edema test was performed in accordance with the method 17 with some modifications. Drugs were administered to all the respective groups. One hour later, the animals were injected with 0.01 mL of 1% (w/v) freshly prepared carrageenan solution into the right-hind paw sub plantar injection. Paw thickness and volume were measured after 30 min, 1, 2, 4, and 24 h after carrageenan injection using Vernier callipers and Plethysmometer, respectively. The percentage inhibition of inflammation was calculated.
Data were analyzed using one-way analysis of variance (ANOVA) with Duncan multiple range test for means ±standard error, where *P<0.001 was considered to indicate statistically significant difference between groups. All the experimental data were derived from three independent experiments.

[2] = set-up: species or system Wistar rats; details: rat, in vivo, po, 1000 mg/kg
Experimental: Twelve healthy male Wistar rats aged 10-12-week-old (250-300 g) were used for the bioavailability study. The animals were procured from Biogen Laboratory Animal Facility, Bangalore, India (Reg No. 971/PO/RcBiBt/S/06/CPCSEA). All the animals were housed in air-conditioned room under temperature (22±3° C.) and humidity (30-70%) controlled environment. The rats were fed standard rodent diet and water ad libitum. The animal experimentation protocol was approved by the Institutional Animal Ethics Committee (IAEC) of Vidya Herbs Pvt Ltd., Bangalore, India (VHPL/PCL/IAEC/02/2021).
After 7-day acclimatization, the animals were fasted overnight prior to the experiment, with free access to water. […] The sample size was determined by power analysis (Festing and Altman, 2002) using the formula,
The extracts were formulated in a mixture of Cremaphor, Tween 80, ethanol, and water. The extracts were administered by oral gavage at a single dose of 1000 mg/kg. The animals were anesthetised in anaesthesia chamber supplied with 2% gaseous isoflurane. Blood samples were collected from tail vein at 0.25, 0.5, 1, 2, 4, 8, 12 and 24 h after oral administration of extracts. The blood samples collected in heparinized tubes were centrifuged at 3000 rpm for 10 min. The plasma samples were stored at −20° C. for further analysis. […]

[3] = assay type: in vitro ADME
Experimental: Briefly, 20 mL of the saline solution containing 1 mL plant extracts were acidified to pH 2.0 by adding porcine pepsin preparation (40 mg/mL in 0.1 M HCl) and allowed for gastric digestion at 37° C. in a shaker incubator. After 1 h, the pH of the solution was adjusted to 5.3 using 0.9 M NaHCO3 solution. To this added 200 μL of bovine and porcine bile extract solution (100 mg/mL in saline), and 100 μL of pancreatin solution (80 mg/mL in saline). The pH was readjusted to 7.5 using 1 M NaOH followed by incubation at 37° C. for 2 h to accomplish the intestinal digestion phase. Aliquots of samples before and after digestion were centrifuged at 5000 g; upper phase used for anti-lipase and antioxidant assays. The samples were further used for HPLC analysis to determine the bioavailability.
HPLC analysis of the samples before and after gastrointestinal digestion was performed following the in-house validated chromatographic conditions using a Shimadzu LC2030 C Prominence-i (Japan) system equipped with a high sensitivity LC2030 ultraviolet (UV) detector and LabSolutions software.

[4] = target: Monoamine oxidase-B (MAO-B); experiment: MAO-B inhibition assay (rat liver homogenate); assay type: biochemical
Experimental: The rat liver tissues were quickly removed to wash in ice-cold potassium phosphate buffer (0.2 M, pH 7.6), and stored at −80° C. 5 g of liver tissue was homogenized (1:20, w/v) in 0.3 M sucrose at 4° C. and centrifuged at 2000×g for 10 min. The supernatant was further centrifuged at 12000×g for 25 min. The resulting pellet suspended in minimal volume in 0.3 M sucrose and overlay on 1.3 M sucrose and centrifuge at 12000×g (40 min) to obtain a crude mitochondrial pellet. The pellet was resuspended in 2 mL 0.2 M phosphate buffer (pH 7.6) used as MAO-B enzyme source. Total protein concentration was measured by the method of Bradford and adjusted with buffer (0.2 M; pH 7.6) to 0.5 mg protein per ml (stock solution) and stored at −80° C. in aliquots until required.
The assay was carried out in 96-well microplates according to the process modified by Holt' et al. (1997). […] Paragyline was used as the standard inhibitor.

COc1ccc2c(c1)c(CC(=O)O)c(C)n2C(=O)c1ccc(Cl)cc1 [Indomethacin]
Paw thickness ([1]; 0 h): 2.41 ± 0.12 mm
Paw volume ([1]; 0 h): 1.12 ± 0.04 mL
Paw thickness ([1]; 0.5 h): 3.18 ± 0.09*** mm
Paw volume ([1]; 0.5 h): 1.32 ± 0.04** mL
Paw thickness ([1]; 1 h): 3.73 ± 0.07*** mm
Paw volume ([1]; 1 h): 1.57 ± 0.08*** mL
Paw thickness ([1]; 2 h): 3.12 ± 0.11*** mm
Paw volume ([1]; 2 h): 1.47 ± 0.06*** mL
Paw thickness ([1]; 4 h): 2.67 ± 0.09*** mm
Paw volume ([1]; 4 h): 1.37 ± 0.03*** mL
Paw thickness ([1]; 24 h): 2.43 ± 0.10*** mm
Paw volume ([1]; 24 h): 1.16 ± 0.05*** mL

O=C(/C=C/c1ccc(O)cc1)CC(=O)/C=C/c1ccc(O)cc1 [BDMC, bisdemethoxycurcumin]
AUC0-Last [2]: markedly increased
bioavailability with respect to undigested sample [3]: considerably higher
concentration in the samples at different digestive phases [3]: remained unchanged

C#CCN(C)Cc1ccccc1 [paragyline]
MAO-B IC-50 [4]: 6.5 µg/mL
